Read-outs that look alike come from different tables or passages of the source.
System: miR-21
Test: High throughput primary miR-21 FLuc reporter assay (concentration-response)
Assay type: cell-based, human
Method: Primary miR-21 Assay. The primary miR-21 FLuc reporter assay is carried out with HeLa cells expressing the Luc-miR-21 reporter using a 48-hour incubation time. Active compounds that increase the luciferase response are identified based upon inhibition of miR-21.
SAR. The concentration-response data for the entire high throughput screen is plotted and modeled by a four parameter logistic fit and SAR analysis is performed according to conventional approaches (Iglese, et al. (2006) Proc. Natl. Acad. Sci. USA […]:11473-8). In brief, Class 1.1 and 1.2 are full curves containing upper and lower asymptotes with efficacy ≧80% and <80%, respectively. Class 2.1 and 2.2 are incomplete curves having only one asymptote with efficacy ≧80% and <80%, respectively. Class 3 curves show activity at only the highest concentration or are poorly fit. […] For SAR analysis, compounds associated with Class 1 and 2.1 curves are clustered using LEADSCOPE® fingerprints. […] Compounds sharing a common scaffold form a series. Candidate series and singletons are chosen for follow up studies. For each lead or series, an appropriate library design method (e.g., point substitution library or matrix library) is selected. Typically, precursors are synthesized and a library of 15-25 compounds is produced for analysis in the above-described assays.

[1] = Homo sapiens, Table 12 singletons, read-out: AC50
[2] = Homo sapiens, HeLa, 48 h, HeLa Luc-miR-21 reporter, 48-hour incubation, read-out: AC50
[3] = HeLa Luc-miR-21 reporter, 48-hour incubation
[4] = HeLa Luc-miR-21 reporter, 48-hour incubation, four parameter logistic fit
[5] = HeLa Luc-miR-21 reporter, 48-hour incubation, read-out: AC50

CC(C)(C)NS(=O)(=O)c1cccc(S(=O)(=O)c2cccc(S(=O)(=O)NC(C)(C)C)c2)c1 [Compound 253]
AC50 [1]: 1.65 µM

Cc1occc1C(=O)N/N=C(\S)Nc1ccccc1C(F)(F)F [Compound 211]
AC50 [2]: 8.26 µM

COc1cccc(C(=O)NCCC2=CCCCC2)c1OC [Compound 90]
AC50 [2]: 5.85 µM

O=S(=O)(c1cccc2nsnc12)N1CCc2ccccc21 [Compound 269]
AC50 [1]: 4.65 µM

COc1ccc(C2Nc3ccccc3C(=O)N2c2ccc(C)cc2)cc1Cn1nc(C)c([N+](=O)[O-])c1C (centres unmarked) [Compound 347]
AC50 [1]: 3.09 µM

CC(=O)COc1ccc2c3c(c(=O)oc2c1C)CCCCC3 [Compound 261]
AC50 (Homo sapiens): 3.29 µM

CCNc1ccc(/N=N/c2c(C)n(C)n(-c3ccccc3)c2=O)cc1 [Compound 344]
AC50 [1]: 16.5 µM

CCCC(=O)N(CCN1CCOCC1)c1nc2cc(C)c(C)cc2s1 [Compound 120]
AC50 [2]: 7.36 µM

Fc1cccc(/C=N/N=C(\S)Nc2ccccc2Cl)c1 [Compound 268]
AC50 [1]: 4.65 µM

Cc1ccc(OCC(=O)N(Cc2ccco2)c2ccccn2)cc1 [Compound 169]
AC50 [2]: 14.7 µM

COc1ccc(OCC(=O)Nc2ccc(-c3nc4cc(Cl)ccc4o3)cc2)cc1 [Compound 167]
AC50 [2]: 2.93 µM

CCc1ccc(NC(=O)NCCCN2CCCC2=O)cc1 [Compound 291]
AC50 [1]: 11.7 µM

COCc1cc(C)nc2sc(C(=O)Nc3ccccc3O)c(N)c12 [Compound 86]
AC50 [2]: 13.1 µM

COc1ccc(-c2nc(SCc3ccccc3)n(S(C)(=O)=O)n2)cc1 [Compound 48]
AC50 [2]: 13.1 µM

Nc1c(C(=O)Nc2ccc(S(=O)(=O)N3CCCC3)cc2)sc2nc3cc4c(cc3cc12)CCC4 [Compound 85]
AC50 [2]: 13.1 µM

CN1CCN(/N=C/c2nc(-c3ccc(Cl)cc3)n3ccccc23)CC1 [Compound 325]
AC50 [1]: 16.5 µM

CSc1c(C#N)c(N)c(C#N)c2c1COC(C)(C)C2 [Compound 332]
AC50 [1]: 18.5 µM

COc1ccc(CNc2nc(-c3ccco3)nn2C(=O)CC(C)C)cc1 [Compound 32]
AC50 [2]: 5.85 µM

O=C(Nc1nnc(S(=O)(=O)N2CCCC2)s1)c1ccc(F)cc1 [Compound 106]
AC50 [2]: 3.69 µM

Cc1cccc2c1-c1sc(C(=O)Nc3cccnc3)cc1CO2 [Compound 323, CC1═C/C═C\C2═C\1\C3═C(CO2)\C═C(/S3)C(═O)NC4═C/C═C\N═C\4]
Curve Class (Table 12 singletons, concentration-response curve class): −2.2 | Efficacy (Table 12 singletons, negative values as printed): −70.23 | AC50 (Table 12 singletons, read-out: AC50): 16.5 µM

CCc1nonc1NC(=O)c1oc2cc(C)c(C)cc2c1C [Compound 74]
AC50 [2]: 5.85 µM

COc1ccc2cc(OCC(=O)NNC(=O)Nc3ccc(C(C)=O)cc3)ccc2c1 [Compound 183, COC1═C/C═C2/C═C(OCC(═O)NNC(═O)NC3═C/C═C(\C═C\3)C(C)═O)\C═C/C\2═C\1]
Efficacy [3]: −65.21 | Curve Class [4]: −2.2 | AC50 [5]: 16.5 µM

CC1Oc2ccccc2N(CC(=O)NCc2cccs2)C1=O (centres unmarked) [Compound 334]
AC50 [1]: 18.5 µM

Cc1ccc(-c2csc(NC(=O)CSc3nc4ccccc4o3)n2)cc1 [Compound 147]
AC50 [2]: 11.7 µM

CC(=O)Nc1ccccc1NC(=O)C/C(C)=N/NC(=O)c1ccccn1 [Compound 189]
AC50 [2]: 1.85 µM

CCOC(=O)C1CCCN(Cc2cccc(Cl)c2)C1 (centres unmarked) [Compound 335]
AC50 [1]: 18.5 µM

Cc1ccc2nc(C)c(/C=C/C(=O)c3ccco3)cc2c1 [Compound 297]
AC50 [1]: 14.7 µM

CSc1nsc(SCC(=O)N2CCCCC2)n1 [Compound 150]
AC50 [2]: 13.1 µM

CN(C(=O)CSc1nnc(-c2ccccc2F)o1)C1CCCCC1 [Compound 143]
AC50 [2]: 9.27 µM

Cc1ccc(-c2nsc(SCC(=O)Nc3ccc4c(c3)OCO4)n2)cc1 [Compound 161]
AC50 [2]: 16.5 µM

O=C(O)c1ccccc1C(=O)N1N=C(c2ccccc2)CC1c1ccccc1O (centres unmarked) [Compound 226]
AC50 [2]: 14.7 µM

C/C(=N\NC(=O)c1ccc(Br)o1)c1ccc(C)o1 [Compound 216]
AC50 [2]: 10.4 µM

Cc1cccc(NC(=O)C2Cc3ccccc3O/C2=N/O)c1 (centres unmarked) [Compound 114]
AC50 [2]: 10.4 µM

C/C(CC(=O)NCc1ccccc1Cl)=N\NC(=O)c1ccccn1 [Compound 213]
AC50 [2]: 8.26 µM

COc1ccc(C(=O)NCCC2=CCCCC2)cc1OC1CCN(C(C)C)CC1 [Compound 117]
AC50 [2]: 16.5 µM

NC1=NC(=O)/C(=C/c2cn(Cc3ccccc3)c3ccccc23)S1 [Compound 284]
AC50 [1]: 9.27 µM

CC(=O)N1CCN(c2nc3c(F)cc(F)cc3s2)CC1 [Compound 254]
AC50 [1]: 1.85 µM

Clc1ccc(-n2ncc3c(NCc4ccccn4)ncnc32)cc1 [Compound 245]
AC50 [2]: 5.85 µM

Cc1cc(Cl)c2oc(C(=O)N(CCO)Cc3ccccc3)c(C)c2c1 [Compound 78]
AC50 [2]: 14.7 µM

COc1ccc(-c2noc(-c3nnn(-c4cc(C)ccc4C)c3N)n2)cc1 [Compound 18]
AC50 [2]: 1.47 µM

CNc1cc([N+](=O)[O-])ccc1/N=C/C=C(\O)c1cccs1 [Compound 290]
AC50 [1]: 11.7 µM

COc1ccc(Nc2nc(N)nc(CSc3nccc(C)n3)n2)cc1 [Compound 66]
AC50 [2]: 16.5 µM

Cc1ccc(NC(=O)CSc2nnc(-c3cccs3)o2)cc1S(=O)(=O)N(C)C [Compound 141]
AC50 [2]: 8.26 µM

CSc1nsc(SCC(=O)Nc2ccc(F)cc2F)n1 [Compound 131]
AC50 [2]: 4.14 µM

Cc1ccc(C)c(N/C(S)=N/NC(=O)c2csc(C)c2C)c1 [Compound 207]
AC50 [2]: 6.56 µM

CC(C)c1ccc2nc(SCC(=O)NCC3CCCO3)c(C#N)cc2c1 (centres unmarked) [Compound 135, CC(C)C1═C/C═C2/N═C(SCC(═O)NCC3CCCO3)\C(═C/C\2═C\1)C#N]
Efficacy [3]: −60.74 | Curve Class [4]: −2.2 | AC50 [5]: 5.85 µM

COc1ccccc1NC(=O)C/C(C)=N/NC(=O)c1ccccn1 [Compound 188]
AC50 [2]: 1.85 µM

O=C(CSc1ccccc1)NCCc1ccccc1 [Compound 152]
AC50 [2]: 14.7 µM

Cc1ccc(/C=N/NC(=O)NC2CCCCC2)o1 [Compound 342]
AC50 [1]: 18.5 µM

CCc1ccc(-n2nnc(-c3nc(-c4cccs4)no3)c2N)cc1 [Compound 15]
AC50 [2]: 1.17 µM

CC1=NN(C(=O)c2ccc(C)o2)C(O)(c2ccccc2)C1 (centres unmarked) [Compound 231]
AC50 [2]: 16.5 µM

Cc1oc(/C=N/NS(=O)(=O)c2ccccc2)cc1Br [Compound 238]
AC50 [2]: 13.1 µM

O=C(c1ccc(Cl)cc1)n1nc(-c2ccccc2)nc1NCc1ccco1 [Compound 36]
AC50 [2]: 14.7 µM

Cc1ccc(-c2nc(NCc3ccco3)n(S(C)(=O)=O)n2)cc1 [Compound 37]
AC50 [2]: 14.7 µM

O=C(N/N=C1\CC2C=CCC12)c1ccco1 (centres unmarked) [Compound 199]
AC50 [2]: 5.21 µM

Cc1c(Cl)cccc1Nc1nc(N)nc(CSC(=S)N2CCOCC2)n1 [Compound 68]
AC50 [2]: 18.5 µM

O=C(NC1CCCCCC1)C1CCCN(c2ncccn2)C1 (centres unmarked) [Compound 339]
AC50 [1]: 18.5 µM

Nc1c(C(=O)Nc2ccccc2Br)sc2nc(-c3cccs3)ccc12 [Compound 82]
AC50 [2]: 7.36 µM

Nc1c(-c2ccccc2)n[nH]c1-c1ccccc1 [Compound 262]
AC50 [1]: 3.29 µM

CCOC(=O)N1CCN(C(=O)CSCc2ccccc2Cl)CC1 [Compound 160]
AC50 [2]: 16.5 µM

C/C(=N\NC(=O)c1ccoc1C)c1ccc(Br)s1 [Compound 219]
AC50 [2]: 11.7 µM

COc1ccc(-n2nnc(-c3nc(-c4cccs4)no3)c2N)cc1 [Compound 17]
AC50 [2]: 0.58 µM

O=C(COc1ccccc1[N+](=O)[O-])N/N=C/c1ccc(O)cc1 [Compound 172]
AC50 [2]: 11.7 µM

Cc1ccccc1OCCSc1nnc(C)n1-c1ccccc1 [Compound 50]
AC50 [2]: 14.7 µM

CC(=O)N1N=C(c2ccc(C)cc2)OC1c1cccnc1 (centres unmarked) [Compound 322]
AC50 [1]: 16.5 µM

Reference: patent US20120010177A1, “MicroRNA Modulators and Method for Identifying And Using The Same” (The Wistar Institute / North Carolina State University, priority 2008, published 2012)
